Experimental data taken from US20070213305A1, “N-alkyl-N-aryl-thienopyrimidin-4-amines and analogs as activators of caspases and inducers of apoptosis and the use thereof” (Cytovia, Inc., priority 2005, published 2007).
Read-outs that look alike come from different tables or passages of the source.

What was measured:
[1] = test system: human hepatocellular carcinoma cell line SNU398; assay: Caspase cascade activation (DEVD-R110 fluorogenic substrate) in SNU398 cells; format: cell-based
Procedure: (§1) Human breast cancer cell line T-47D, human lung cancer cell line H1299 and human hepatocellular carcinoma cell line SNU398 were grown according to media component mixtures designated by American Type Culture Collection+10% FCS (Invitrogen Corporation), in a 5% CO2-95% humidity incubator at 37° C. T-47D and H1299 cells were maintained at a cell density between 50 and 80% confluency at a cell density of 0.1 to 0.6×10^6 cells/mL. Cells were harvested at 600×g and resuspended at 0.65×10^6 cells/mL into appropriate media+10% FCS. An aliquot of 22.5 μL of cells was added to a well of a 384-well microtiter plate containing 2.5 μL of a 10% DMSO in RPMI-1640 media solution containing 0.16 to 100 μM of N-(4-methoxyphenyl)-N, 2-dimethylthieno[3,2-d]pyrimidin-4-amine or other test compound (0.016 to 10 μM final). An aliquot of 22.5 μL of cells was added to a well of a 384-well microtiter plate containing 2.5 μL of a 10 % DMSO in RPMI-1640 media solution without test compound as the control sample. The samples were mixed by agitation and then incubated at 37° C. for 24 h or 48 h in a 5% CO2-95% humidity incubator. After incubation, the samples were removed from the incubator and 25 μL of a solution containing 14 μM of N-(Ac-DEVD)-N′-ethoxycarbonyl-R110 (SEQ ID No.:1) fluorogenic substrate (Cytovia, Inc.; WO99/18856), 20% sucrose (Sigma), 20 mM DTT (Sigma), 200 mM NaCI (Sigma), 40 mM Na PIPES buffer pH 7.2 (Sigma), and 500 μg/mL lysolecithin (Calbiochem) was added. The samples were mixed by agitation and incubated at room temperature. Using a fluorescent plate reader (Model SPECTRAfluor Plus, Tecan), an initial reading (T=0) was made approximately 1-2 min after addition of the substrate solution, employing excitation at 485 nm and emission at 530 nm, to determine the background fluorescence of the control sample. After the 3 h incubation, the samples were read for fluorescence as above (T=3 h).
(§2) The Relative Fluorescence Unit values (RFU) were used to calculate the sample readings as follows: RFU(T=3h)-Control RFU(T=0)=Net RFU(T=3h)
(§3) The activity of caspase cascade activation was determined by the ratio of the net RFU value for N-(4-methoxyphenyl)-N,2-dimethylthieno[3,2-d]pyrimidin-4-amine or other test compound to that of control samples. The EC50 (nM) was determined by a sigmoidal dose-response calculation (Prism 3.0, GraphPad Software Inc.).
Several compounds were also tested in other cancer cells lines (48 h assay), including human hepatocellular carcinoma cell line SNU398, human colon carcinoma cell line […], human B cell lymphoblastoid cell line Ramos, human Burkitt's lymphoma cell line Namalwa, and cervical cancer cell line HeLa, and the data are summarized in Table II.

[2] = test system: multi-drug resistant (MDR) human sarcoma cell line MES-SA/ADR; assay: Inhibition of cell proliferation (GI50) in MES-SA/ADR cells; format: cell-based
Procedure: (§4) T-47D, HT29, H1299, MX-1 and MDAMB435 cells were grown and harvested as in Example 29. An aliquot of 90 μL of cells (4.4×10^4 cells/mL) was added to a well of a 96-well microtiter plate containing 5 μL of a 10% DMSO in RPMI-1640 media solution containing 10 nM to 100 μM of N-(4-methoxyphenyl)-N,2-dimethylthieno[2,3-d]pyrimidin-4-amine (1 nM to 10 μM final) or related compounds. An aliquot of […] of cells was added to a well of a 96-well microtiter plate containing 5 μL of a 10% DMSO in RPMI-1640 media solution without compound as the control sample for maximal cell proliferation (LMax). The samples were mixed by agitation and then incubated at 37° C. for 48 h in a 5% CO2-95% humidity incubator. After incubation, the samples were removed from the incubator and 25 μL of CellTiter-Glo™ reagent (Promega) was added. The samples were mixed by agitation and incubated at room temperature for 10-15 min. Plates were then read using a luminescent plate reader (Model SPECTRAfluor Plus, Tecan) to give Ltest values.
(§5) The samples were mixed by agitation and then incubated at 37° C. for 0.5 h in a 5% CO2-95% humidity incubator. After incubation, the samples were removed from the incubator and 25 μL of CellTiter-Glo™ reagent (Promega) was added. The samples were mixed by agitation and incubated at […] room temperature in a 5% CO2-95% humidity incubator. […] was read as above, (Lstart) defining luminescence for initial cell number used as baseline in GI50 determinations. ps Calculation:
(§6) GI50 (dose for 50% inhibition of cell proliferation) is the concentration where [(LTest-LStart)/(LMax-LStart)]=0.5.
(§7) Several compounds were tested in other cancer cell lines, including human sarcoma cell line MES-SA and multi-drug resistant (MDR) human sarcoma cell line MES-SA/ADR, murine leukemia cell line P388 and multi-drug resistant (MDR) murine leukemia cell line P388ADR, and the data are summarized in Table IV.

[3] = test system: human sarcoma cell line MES-SA; assay: Inhibition of cell proliferation (GI50) in MES-SA cells; format: cell-based
Procedure: as §4, §5, §6, §7

[4] = test system: human lung cancer cell line H1299; assay: Caspase cascade activation (DEVD-R110 fluorogenic substrate) in H1299 cells; format: cell-based; settings: read-out: Caspase Activation Potency EC50 (nM) (24 h) H1299
Procedure: as §1, §2, §3

[5] = test system: murine leukemia cell line P388; assay: Inhibition of cell proliferation (GI50) in P388 cells; format: cell-based
Procedure: as §4, §5, §6, §7

[6] = test system: multi-drug resistant (MDR) murine leukemia cell line P388ADR; assay: Inhibition of cell proliferation (GI50) in P388/ADR cells; format: cell-based
Procedure: as §4, §5, §6, §7

[7] = test system: human breast cancer cell line T-47D; assay: Caspase cascade activation (DEVD-R110 fluorogenic substrate) in T-47D cells; format: cell-based; settings: 24 h, read-out: Caspase Activation Potency EC50 (nM) (24 h) T-47D
Procedure: as §1, §2, §3

[8] = test system: MX-1 cells; assay: Inhibition of cell proliferation (GI50, CellTiter-Glo) in MX-1 cells; format: cell-based; settings: MX1, 48 h incubation, read-out: GI50 in Cancer Cells GI50 (nM) MX1
Procedure: as §4, §5, §6

[9] = test system: MDAMB435 cells; assay: Inhibition of cell proliferation (GI50, CellTiter-Glo) in MDAMB435 cells; format: cell-based; settings: MDAMB435, 48 h incubation, read-out: GI50 in Cancer Cells GI50 (nM) MDAMB435
Procedure: as §4, §5, §6

[10] = test system: HT29 cells; assay: Inhibition of cell proliferation (GI50, CellTiter-Glo) in HT29 cells; format: cell-based; settings: HT29, 48 h incubation, read-out: GI50 in Cancer Cells GI50 (nM) HT29
Procedure: as §4, §5, §6

[11] = test system: H1299 cells; assay: Inhibition of cell proliferation (GI50, CellTiter-Glo) in H1299 cells; format: cell-based, human; settings: H1299, 48 h incubation, read-out: GI50 in Cancer Cells GI50 (nM) H1299
Procedure: as §4, §5, §6

[12] = test system: T-47D cells; assay: Inhibition of cell proliferation (GI50, CellTiter-Glo) in T-47D cells; format: cell-based, human; settings: T47D, 48 h incubation, read-out: GI50 in Cancer Cells GI50 (nM) T47D
Procedure: as §4, §5, §6

[13] = test system: human B cell lymphoblastoid cell line Ramos; assay: Caspase cascade activation in Ramos cells; format: cell-based; settings: 48 h, read-out: Caspase Activation Potency EC50 (nM) (48 h) Ramos
Procedure: (§8) Human breast cancer cell line T-47D, human lung cancer cell line H1299 and human hepatocellular carcinoma cell line SNU398 were grown according to media component mixtures designated by American Type Culture Collection+10% FCS (Invitrogen Corporation), in a 5% CO2-95% humidity incubator at 37° C. T-47D and H1299 cells were maintained at a cell density between 50 and 80% confluency at a cell density of 0.1 to 0.6×10^6 cells/mL. Cells were harvested at 600×g and resuspended at 0.65×10^6 cells/mL into appropriate media+10% FCS. […] Using a fluorescent plate reader (Model SPECTRAfluor Plus, Tecan), an initial reading (T=0) was made approximately 1-2 min after addition of the substrate solution, employing excitation at 485 nm and emission at 530 nm, to determine the background fluorescence of the control sample. After the 3 h incubation, the samples were read for fluorescence as above (T=3 h).
as §2
(§9) The activity of caspase cascade activation was determined by the ratio of the net RFU value for N-(4-methoxyphenyl)-N,2-dimethylthieno[3,2-d]pyrimidin-4-amine or other test compound to that of control samples. The EC50 (nM) was determined by a sigmoidal dose-response calculation (Prism 3.0, GraphPad Software Inc.). […]

[14] = test system: HCT116; assay: Caspase cascade activation in HCT116 cells; format: cell-based; settings: Homo sapiens, HCT-116; HCT116, 48 h; read-out: Caspase Activation Potency EC50 (nM) (48 h) HCT116
Procedure: as §8, §2, §9

[15] = test system: cervical cancer cell line HeLa; assay: Caspase cascade activation in HeLa cells; format: cell-based; settings: Homo sapiens, 48 h, read-out: Caspase Activation Potency EC50 (nM) (48 h) HeLa
Procedure: as §8, §2, §9

[16] = test system: human lymphoma cell line Raji; assay: Caspase cascade activation in Raji cells; format: cell-based; settings: 48 h, read-out: Caspase Activation Potency EC50 (nM) (48 h) Raji
Procedure: as §8, §2, §9

[17] = test system: human Burkitt's lymphoma cell line Namalwa; assay: Caspase cascade activation in Namalwa cells; format: cell-based; settings: Burkitts lymphoma cell, 48 h, read-out: Caspase Activation Potency EC50 (nM) (48 h) Namalwa
Procedure: as §8, §2, §9

[18] = Homo sapiens, SNU-398, SNU398, 24 h, read-out: Caspase Activation Potency EC50 (nM) (24 h) SNU398
[19] = Homo sapiens, SNU-398, SNU398, 48 h, read-out: Caspase Activation Potency EC50 (nM) (48 h) SNU398

SMILES	EC50 [1, 18] [nM]	GI50 in Multi-Cancer Cells EC50 (nM) MES-SA/ADR [2] [nM]	GI50 in Multi-Cancer Cells EC50 (nM) MES-SA [3] [nM]	EC50 ([4]; Homo sapiens, NCI-H1299, 24 h) [nM]	GI50 in Multi-Cancer Cells EC50 (nM) P388 [5] [nM]	GI50 in Multi-Cancer Cells EC50 (nM) P388/ADR [6] [nM]	EC50 ([7]; Homo sapiens, T47D) [nM]	GI50 ([8]; Homo sapiens) [nM]	GI50 ([9]; Homo sapiens, MDA-MB-435) [nM]	EC50 ([4]; H1299, 24 h) [nM]	GI50 ([10]; Homo sapiens, HT-29) [nM]	EC50 [7] [nM]	GI50 ([11]; Homo sapiens, NCI-H1299) [nM]	GI50 ([12]; Homo sapiens) [nM]	EC50 [1, 19] [nM]	EC50 [14] [nM]	EC50 [15] [nM]	further results
COc1ccc(N(C)c2nc(C)nc3ccsc23)cc1 [Example 1, N-(4-Methoxyphenyl)-N,2-dimethylthieno[3,2-d]pyrimidin-4-amine]	28	13	12	24	15	16	14	–	–	–	–	–	–	–	–	–	–	–
COc1ccc(N(C)c2nc(C)nc3sccc23)cc1 [Example 2, N-(4-Methoxyphenyl)-N,2-dimethylthieno[2,3-d]pyrimidin-4-amine]	–	–	–	–	–	–	–	5	2	15	26	9	9	5	–	–	–	–
COc1ccc(N(C)c2nc(C)nc3scc(C)c23)cc1 [Example 4, N-(4-Methoxyphenyl)-N,2,5-trimethylthieno[2,3-d]pyrnmidin-4-amine]	–	–	–	–	–	–	–	–	–	9	–	4	–	–	–	–	–	EC50 ([1]; SNU398, 24 h, read-out: Caspase Activation Potency EC50 (nM) (24 h) SNU398): 4 nM; GI50 [8]: 5 nM; GI50 [9]: 5 nM; GI50 [10]: 5 nM; GI50 [11]: 2 nM; GI50 [12]: 5 nM
COc1ccc(N(C)c2nc(C)nc3sccc23)cc1.Cl [Example 5, N-(4-Methoxyphenyl)-N,2-dimethylthieno[2,3-d]pyrimidin-4-amine hydrochloride]	12	5	3	14	7	4	8	–	–	–	–	–	–	–	9	27	8	EC50 [13]: 27 nM; EC50 [16]: 20 nM; EC50 [17]: 20 nM
COc1ccc(N(C)c2ncnc3ccsc23)cc1 [Example 6, N-(4-Methoxyphenyl)-N-methylthieno[3,2-d]pyrimidin-4-amine]	123	100	58	56	74	105	45	40	16	–	40	–	38	4	–	–	–	–
COc1ccc(N(C)c2nc(C)nc3sc(C)c(C)c23)cc1 [Example 24, N-(4-Methoxyphenyl)-N,2,5,6-tetramethylthieno[2,3-d]pyrimidin-4-amine]	27	–	–	59	–	–	17	–	–	–	–	–	–	–	16	15	30	–
